This is an account of results in US20110077581A1, “TARGETED CELLULAR DELIVERY OF NANOPARTICLES” (GEORGIA TECH RESEARCH CORPORATION, priority 2009, published 2011).

The subject of data set [1] is ERα(+) MCF-7 breast cancer cells. The data set is described as follows: Cell viability assay (MTT or XTT) in ERα(+) MCF-7 breast cancer cells. Format: cell-based, human. To be noted: conjugate as effective TAM-PEG-SH ligand concentration, read-out: IC50 (50% inhibitory concentration), cell viability. The protocol:
Cell culture and nanoparticle incubation. ERα(−) MDA-MB-231 and ERα(+) MCF-7 breast cancer cells (human adenocarcinoma, ATCC) or ERα(+) human squamous cell carcinoma (43-45) (HSC-3) cells were cultured to 10^5 cells/cm^2 in DMEM growth media supplanted with 10% v/v heat-inactivated fetal bovine serum, penicillin (100 U/ml), streptomycin (100 μg/ml), 4.5 g/L glucose, […], without L-glutamine and phenol red at 37° C. in a 5% CO2 humidified atmosphere. Growth media was removed from the cell cultures and replaced with identical media containing gold nanoparticle conjugates heated to 37° C. at time=0 h.
Cell viability assay. Following incubation, growth media containing gold nanoparticle conjugates was removed and cells were rinsed twice in sterile Dulbecco's phosphate buffered saline (DPBS). Mitochondrial dehydrogenase activity was assessed by MTT or XTT spectrophotometric assay (Sigma TOX1, TOX2) following the manufacturer's instructions. The assay was performed using a SpectraMax Plus 384 microplate reader and statistical analysis was performed by t-test.
(Tetrazolium dyes change colour on reduction, which living cells bring about.)

The test system of another data set is MCF-7 cells. Kind of data set: In vitro laser photothermal therapy of MCF-7 cells. Format: cell-based, human. The following applies: MCF-7, 0.5 μM, 24 h. The protocol: Following this incubation, cell cultures ere gently rinsed in sterile DPBS buffer and replaced with unmodified growth media prior to laser photothermal treatment. Laser photothermal treatment was performed using the 514.5 nm line of an argon ion laser (Innova 300 Coherent) for 2 min at room temperature (0.32 cm^2). Control cells were similarly removed, however, were untreated with the laser.

For data set [2] the following is noted: cited from earlier work.

pIC50: −log10 of the molar value. Like-named read-outs stand apart in the source and are kept apart here.

Consider Thiol-pegylated tamoxifen [TAM-PEG-SH], for which the pIC50 is 5.44 in data set [1] (MCF-7, 24 h incubation); 5.85 in data set [1] (MCF-7, 36 h incubation); 5.96 in data set [1] (MCF-7, 48 h incubation).
Regarding `CC/C(=C(\c1ccccc1)c1ccc(OCCN(C)C)cc1)c1ccccc1` [tamoxifen], the “in vitro cytotoxicity in the absence of laser treatment” value with MCF-7 cells was “no appreciable in vitro cytotoxicity”. The “steady-state blood plasma concentration” value is 0.40 µM in data set [2] (tamoxifen administered at 10 mg/day) and 0.81 µM in data set [2] (tamoxifen administered at 20 mg/day).
